Data from PMC7031696 (Cell chemical biology, 2019).
Like-named read-outs stand apart in the source and are kept apart here.

Tests used:
[1] = test system: Plasmodium falciparum 3D7-A10 parasites; assay: Stage specificity assay (8-h exposure of synchronized stages, IC50^8h); format: cell-based; conditions: for IC50: Plasmodium falciparum
[2] = test system: asynchronous 3D7-A10 parasite cultures; assay: Standard 72-h exposure asexual blood stage susceptibility assay (IC50^72h); format: cell-based, Plasmodium falciparum; conditions: Plasmodium falciparum, 3D7, 72 h, read-out: Overall (72hr assay) Mean IC50 (IC50^72h)
[3] = test system: 3D7-MR4 trophozoite parasite-infected RBCs; assay: Metabolomic profiling (hydrophilic metabolite changes, UHPLC-MS); format: cell-based, Plasmodium falciparum

SMILES: COc1cncc(-c2cncc(N3CCN(c4ccncc4)CC3)n2)c1 [MMV085071]
- Ratio lowest IC50 8hr/IC50 72hr ([1]; 3D7-A10): 0.6
- IC50 ([1]; 3D7, read-out: Early rings Mean IC50 (IC50^8h), 8-h exposure 0–8 hr, 3D7-A10, survival at 60 h): 893 nM
- IC50 ([1]; 3D7, read-out: Early trophozoites Mean IC50 (IC50^8h), 8-h exposure 16–24 hr, 3D7-A10, survival at 60 h): 61.1 nM
- IC50 ([1]; 3D7, read-out: Late rings Mean IC50 (IC50^8h), 8-h exposure 8–16 hr, 3D7-A10, survival at 60 h): 492 nM
- IC50 ([1]; 3D7, read-out: Late trophozoites Mean IC50 (IC50^8h), 8-h exposure 24–32 hr, 3D7-A10, survival at 60 h): 81.4 nM
- IC50 ([1]; 3D7, read-out: Schizonts Mean IC50 (IC50^8h), 8-h exposure 32–40 hr, 3D7-A10, survival at 60 h): 254 nM
- Peak Activity (Table S1) ([1]; stage(s) with the lowest IC50^8h): Trophs
- IC50 [2]: 105 nM
- changes within the set of metabolites detected (low fold change group) ([3]; 10 × IC50^72h, 2.5 hr, trophozoites): did not induce major changes
- Log2(fold changes) 3-phosphoglycerate ([3]; metabolite 3-phosphoglycerate, log2 fold change): -0.3571
- Log2(fold changes) 4-Pyridoxic acid ([3]; metabolite 4-Pyridoxic acid, log2 fold change): 0.1725
- Log2(fold changes) 4-aminobutyrate ([3]; metabolite 4-aminobutyrate, log2 fold change): -0.2370
- Log2(fold changes) 4-phosphopantetheine ([3]; metabolite 4-phosphopantetheine, log2 fold change): 0.0000
- Log2(fold changes) 4-phosphopantothenate ([3]; metabolite 4-phosphopantothenate, log2 fold change): -0.0279
- Log2(fold changes) 5-aminopentanoic acid ([3]; metabolite 5-aminopentanoic acid, log2 fold change): 0.0000
- Log2(fold changes) 5-methyl-THF ([3]; metabolite 5-methyl-THF, log2 fold change): 0.0000
- Log2(fold changes) 5-phosphoribosyl-1-pyrophosphate ([3]; metabolite 5-phosphoribosyl-1-pyrophosphate, log2 fold change): 0.0000
- Log2(fold changes) 6-phospho-D-gluconate ([3]; metabolite 6-phospho-D-gluconate, log2 fold change): -0.0766
- Log2(fold change) HVDD ([3]; metabolite HVDD): 1.5471
- Log2(fold change) Hydroxyisocaproic acid ([3]; metabolite Hydroxyisocaproic acid): 0.0000
- Log2(fold change) IDP ([3]; metabolite IDP): 0.0000
- Log2(fold change) IMP ([3]; metabolite IMP): -0.0355
- Log2(fold change) Inositol ([3]; metabolite Inositol): 0.0000
- Log2(fold change) Isopentyl-PP ([3]; metabolite Isopentyl-PP): 0.0000
- Log2(fold change) L-arginino-succinate ([3]; metabolite L-arginino-succinate): 0.7586
- Log2(fold change) LD ([3]; metabolite LD): 1.2308
- Log2(fold change) Myristoyl/tetradecanoyl-CoA ([3]; metabolite Myristoyl/tetradecanoyl-CoA): 0.0000
- Log2(fold change) N-Acetyl-L-alanine ([3]; metabolite N-Acetyl-L-alanine): 0.1191
- Log2(fold change) N-acetyl-L-ornithine ([3]; metabolite N-acetyl-L-ornithine): 1.0380
- Log2(fold change) N-acetyl-glucosamine-1/6-phosphate ([3]; metabolite N-acetyl-glucosamine-1/6-phosphate): 0.0154
- Log2(fold change) N-acetyl-glutamate ([3]; metabolite N-acetyl-glutamate): 0.1593
- Log2(fold change) N-acetyl-glutamine ([3]; metabolite N-acetyl-glutamine): -0.2990
- Log2(fold change) N-carbamoyl-L-aspartate ([3]; metabolite N-carbamoyl-L-aspartate): 0.1424
- Log2(fold change) NAD+ ([3]; metabolite NAD+): 0.0189
- Log2(fold change) NADH ([3]; metabolite NADH): 0.0000
- Log2(fold change) NADP+ ([3]; metabolite NADP+): 0.1777
- Log2(fold change) NADPH ([3]; metabolite NADPH): 0.0000
- Log2(fold change) O-acetyl-L-serine ([3]; metabolite O-acetyl-L-serine): 0.0000
- Log2(fold change) Octoluse 8/1P ([3]; metabolite Octoluse 8/1P): 0.0000
- Log2(fold change) Octoluse Bisphosphate ([3]; metabolite Octoluse Bisphosphate): 0.0955
- Log2(fold change) PD ([3]; metabolite PD): 0.1245
- Log2(fold change) PE ([3]; metabolite PE): 0.4481
- Log2(fold change) PEE ([3]; metabolite PEE): 1.1300
- Log2(fold change) PEEK ([3]; metabolite PEEK): 1.3266
- Log2(fold change) PVNF ([3]; metabolite PVNF): 0.3702
- Log2(fold change) Pyroglutamic acid ([3]; metabolite Pyroglutamic acid): 0.0000
- Log2(fold change) Pyrophosphate ([3]; metabolite Pyrophosphate): 0.0000
- Log2(fold change) Ribose-5-phosphate ([3]; metabolite Ribose-5-phosphate): 0.0000
- Log2(fold change) S-adenosyl-L-homocysteine ([3]; metabolite S-adenosyl-L-homocysteine): -0.0131
- Log2(fold change) S-adenosyl-L-methioninamine ([3]; metabolite S-adenosyl-L-methioninamine): 0.0000
- Log2(fold change) S-adenosyl-L-methionine ([3]; metabolite S-adenosyl-L-methionine): 0.0000
- Log2(fold change) S-methyl-5'-thioadenosine ([3]; metabolite S-methyl-5'-thioadenosine): 0.0000
- Log2(fold change) SD ([3]; metabolite SD): 0.5330
- Log2(fold change) SDL ([3]; metabolite SDL): 0.1100
- Log2(fold change) SID ([3]; metabolite SID): -0.3348
- Log2(fold change) Sedoheptulose bisphosphate ([3]; metabolite Sedoheptulose bisphosphate): 0.0203
- Log2(fold change) Thiamine pyrophosphate ([3]; metabolite Thiamine pyrophosphate): 0.0000
- Log2(fold changes) UDP-D-glucose ([3]; metabolite UDP-D-glucose, log2 fold change): 0.0450
- Log2(fold changes) UDP-D-glucuronate ([3]; metabolite UDP-D-glucuronate, log2 fold change): 0.0222
- Log2(fold changes) UDP-N-acetyl-glucosamine ([3]; metabolite UDP-N-acetyl-glucosamine, log2 fold change): -0.1104
- Log2(fold changes) UDP ([3]; metabolite UDP, log2 fold change): 0.8151
- Log2(fold changes) UMP ([3]; metabolite UMP, log2 fold change): -0.2015
- Log2(fold changes) UTP ([3]; metabolite UTP, log2 fold change): -0.1278
- Log2(fold change) hydroxyphenylpyruvate ([3]; metabolite hydroxyphenylpyruvate): 0.0000
- Log2(fold change) hydroxyproline/Aminolevulinate ([3]; metabolite hydroxyproline/Aminolevulinate): -0.0385
- Log2(fold change) hypoxanthine ([3]; metabolite hypoxanthine): 0.0000
- Log2(fold change) indole ([3]; metabolite indole): 0.0000
- Log2(fold change) inosine ([3]; metabolite inosine): -0.0754
- Log2(fold change) isoleucine ([3]; metabolite isoleucine): -0.1140
- Log2(fold change) lactate ([3]; metabolite lactate): 0.0000
- Log2(fold change) leucine ([3]; metabolite leucine): -0.0775
- Log2(fold change) lysine ([3]; metabolite lysine): 0.0000
- Log2(fold change) malate ([3]; metabolite malate): -0.0512
- Log2(fold change) maleic acid ([3]; metabolite maleic acid): -0.0636
- Log2(fold change) methionine ([3]; metabolite methionine): 0.2308
- Log2(fold change) myo-inositol ([3]; metabolite myo-inositol): 0.0000
- Log2(fold change) nicotinamide mononucleotide ([3]; metabolite nicotinamide mononucleotide): 0.0000
- Log2(fold change) nicotinate ([3]; metabolite nicotinate): 0.2062
- Log2(fold change) ornithine ([3]; metabolite ornithine): 0.0000
- Log2(fold change) orotate ([3]; metabolite orotate): 0.3476
- Log2(fold change) orotidine-5'-phosphate ([3]; metabolite orotidine-5'-phosphate): 0.4326
- Log2(fold change) oxaloacetate ([3]; metabolite oxaloacetate): 0.0000
- Log2(fold change) p-aminobenzoate ([3]; metabolite p-aminobenzoate): 0.0000
- Log2(fold change) p-hydroxybenzoate ([3]; metabolite p-hydroxybenzoate): 0.0000
- Log2(fold change) pantothenate ([3]; metabolite pantothenate): -0.2410
- Log2(fold change) phenylalanine ([3]; metabolite phenylalanine): -0.1015
- Log2(fold change) phenylpyruvate ([3]; metabolite phenylpyruvate): 0.0000
- Log2(fold change) phosphoenolpyruvate ([3]; metabolite phosphoenolpyruvate): -0.3652
- Log2(fold change) prephenate ([3]; metabolite prephenate): 0.0000
- Log2(fold change) proline ([3]; metabolite proline): 0.0444
- Log2(fold change) pyridoxine ([3]; metabolite pyridoxine): 0.0000
- Log2(fold change) pyruvate ([3]; metabolite pyruvate): -0.4378
- Log2(fold change) riboflavin ([3]; metabolite riboflavin): -0.6618
- Log2(fold change) ribose ([3]; metabolite ribose): 0.0000
- Log2(fold change) ribose-phosphate ([3]; metabolite ribose-phosphate): -0.0725
- Log2(fold change) ribulose-5-phosphate ([3]; metabolite ribulose-5-phosphate): -0.2555
- Log2(fold change) serine ([3]; metabolite serine): 0.5038
- Log2(fold change) sn-glycerol-3-phosphate ([3]; metabolite sn-glycerol-3-phosphate): -0.1967
- Log2(fold change) succinate/Methylmalonic acid ([3]; metabolite succinate/Methylmalonic acid): -0.0635
- Log2(fold change) succinyl-CoA/methylmalonyl-CoA ([3]; metabolite succinyl-CoA/methylmalonyl-CoA): 0.0000
- Log2(fold change) taurine ([3]; metabolite taurine): 0.0000
- Log2(fold change) thiamine ([3]; metabolite thiamine): 0.0498
- Log2(fold change) threonine/homoserine ([3]; metabolite threonine/homoserine): 0.1750
- Log2(fold change) thymidine ([3]; metabolite thymidine): 0.0000
- Log2(fold changes) thymine ([3]; metabolite thymine, log2 fold change): 0.0000
- Log2(fold changes) trehalose-6-Phosphate ([3]; metabolite trehalose-6-Phosphate, log2 fold change): 0.0000
- Log2(fold changes) tryptophan ([3]; metabolite tryptophan, log2 fold change): -0.0120
- Log2(fold changes) tyrosine ([3]; metabolite tyrosine, log2 fold change): 0.0532
- Log2(fold changes) uridine ([3]; metabolite uridine, log2 fold change): 0.0000
